Assay results taken from patent EP0714404B1, “ANTI-INFLAMMATORY PEPTIDES” (CURATIVE TECHNOLOGIES, INC., priority 1993, dated 1995).
Residues, ends and D or L forms follow the SMILES beside them.

Tests used:
prostaglandin E2 (PGE2) = test: carrageenan peritonitis, PGE2 content of peritoneal lavage fluid; type: in vivo, Mice; settings: 60 mg/kg/day; 24 hr post-challenge
Description: Mice (C57BL/6UAF, females, 12 weeks old) were implanted with Alzet mini pumps set to deliver 60 mg CT-112/kg/day. Six days post-implantation, the mice were challenged with an intraperitoneal injection of 0.3 ml of carrageenan in PBS (10 mg/ml). The peritoneal cavity was lavaged with 15 ml of Hank's Balanced Salt Solution (Ca^2+- and Mg^2+-free) at 24, 48 and 72 hr post-challenge. The lavage fluid was centrifuged (500 g, 5 min), fixed with LeukoStat fixative and stained with LeukoStat staining solution. The slides were analyzed under a microscope for the different types of inflammatory cells, such as macrophages, lymphocytes and neutrophils. At the 48-hr time point, 5 control mice were also lavaged.
In a separate study, the peritoneal lavage fluid was analyzed for total leukotriene B4 (LTB4) and prostaglandin E2 (PGE2) content at 24 hr post-challenge (Griswold et al., 1991, Biochem. Pharmacol. 42(4):825-831).

neutrophils = test: neutrophil viability, trypan blue exclusion; type: cell-based; settings: FIGURE 3
From the text: In addition, CT-112 (SEQ. ID NO: 1) was not cytotoxic to neutrophils, as determined by viability testing using trypan blue exclusion (FIGURE 3).

**Q.** Which results are given for `CC(C)[C@H](NC(=O)[C@H](CCC(N)=O)NC(=O)[C@H](CO)NC(=O)[C@@H](NC(=O)[C@@H](N)[C@@H](C)O)[C@@H](C)O)C(=O)N[C@@H](CCCNC(=N)N)C(=O)N1CCC[C@H]1C(=O)N[C@@H](CCCNC(=N)N)C(=O)O` [CT-112, Thr-Thr-Ser-Gln-Val-Arg-Pro-Arg] (H-TTSQVRPR-OH)?
**A.** PGE2 (prostaglandin E2 (PGE2)): 13.1 ± 6.9(5) pg in peritoneal lavage; cytotoxicity to neutrophils, viability (neutrophils): not cytotoxic
